Measurements taken from ChEMBL document CHEMBL5214933, “Discovery of Selenium-Containing STING Agonists as Orally Available Antitumor Agents” (J Med Chem, 2022).
≈ marks a conversion by molar mass, not a printed value. Calls of active or inactive are those of the source. No cut-off for these calls is given here.

Legend:
4T1 [1] = test: Antitumor activity against mouse 4T1 cells implanted in naive BALB/c mouse assessed as tumor growth inhibition at 20 mg/kg, po administered once every 5 days and measured every 3 days by digital caliper analysis; type: functional, organism-based; conditions: time 5.0 day
[2] = Solubility of compound in PBS buffer at pH 7.4 at 3 mg incubated for 24 hrs under shaking condition by RP-HPLC analysis; type: physicochemical
[3] = system: Stimulator of interferon genes protein (Homo sapiens), Q86WV6 [UNDEFINED MUTATION]; test: Binding affinity to recombinant human STING R232 variant expressed in Escherichia coli BL21 (DE3) assessed as thermal stabilization by measuring change in melting temperature at 0.1 mM incubated for 30 mins by SYPRO orange dye based differential scanning fluorimetry assay
Chain of Stimulator of interferon genes protein (Homo sapiens), Q86WV6 [UNDEFINED MUTATION] (Q86WV6 whole entry, looked up, stated change not applied): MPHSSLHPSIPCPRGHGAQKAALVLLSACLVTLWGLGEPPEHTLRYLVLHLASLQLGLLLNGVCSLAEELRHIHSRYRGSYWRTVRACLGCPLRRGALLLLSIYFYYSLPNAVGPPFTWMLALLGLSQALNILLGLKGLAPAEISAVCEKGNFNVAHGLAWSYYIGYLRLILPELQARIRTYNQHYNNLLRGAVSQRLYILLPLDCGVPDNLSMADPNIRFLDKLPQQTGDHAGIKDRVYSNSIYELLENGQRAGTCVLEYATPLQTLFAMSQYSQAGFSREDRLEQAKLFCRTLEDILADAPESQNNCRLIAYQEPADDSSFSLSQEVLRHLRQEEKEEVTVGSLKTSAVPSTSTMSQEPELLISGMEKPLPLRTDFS

[4] = Clearance in Sprague-Dawley rat at 50 mg/kg, po measured for 1440 mins by LC-MS/MS analysis; type: ADME, organism-based; conditions: in vivo
Mus musculus = test: Immunostimulatory activity in naive […] mouse implanted with mouse MC38 cells assessed as increase in CD8 T cells in spleen at 30 mg/kg, po by FACS analysis; type: functional, organism-based; conditions: MC-38
[5] = target: T1, Stimulator of interferon genes protein (Mus musculus) (UniProt Q3TBT3); test: Agonist activity at STING in mouse MEF cells assessed as increase in IFNbeta mRNA expression at 10 uM measured after 3 hrs by qRT-PCR analysis; type: cell-based; conditions: filed as agonist
T1 sequence (whole entry): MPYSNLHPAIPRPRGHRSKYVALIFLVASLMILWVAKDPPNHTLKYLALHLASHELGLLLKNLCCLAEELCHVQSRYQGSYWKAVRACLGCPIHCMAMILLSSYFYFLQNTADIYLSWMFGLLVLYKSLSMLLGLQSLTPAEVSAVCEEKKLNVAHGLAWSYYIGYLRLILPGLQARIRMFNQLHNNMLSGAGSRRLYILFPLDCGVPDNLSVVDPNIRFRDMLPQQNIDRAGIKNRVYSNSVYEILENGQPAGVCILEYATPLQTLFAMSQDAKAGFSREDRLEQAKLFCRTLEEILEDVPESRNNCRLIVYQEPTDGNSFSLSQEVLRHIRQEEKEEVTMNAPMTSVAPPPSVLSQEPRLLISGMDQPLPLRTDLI

[6] = Stability in human plasma assessed as interconversion into (S)-4-(5,6-Dimethoxybenzo[b]selenophen-2-yl)-2-ethyl-4-oxobutanoic acid incubated for 24 hrs by normal-phase HPLC analysis; type: ADME, cell-free
[7] = target: T2, Stimulator of interferon genes protein (Mus musculus, UniProt Q3TBT3); test: Agonist activity at STING in mouse RAW264.7 cells harboring IRF-inducible luciferase reporter construct assessed as increase in relative fluorescence unit incubated for 12 hrs by Quanti-luc reagent based assay; type: cell-based
T2 sequence (Q3TBT3 whole entry): T1 sequence (whole entry)

[8] = target: T3, Stimulator of interferon genes protein (Homo sapiens, UniProt Q86WV6); test: Agonist activity at STING in cGAS knockout human THP-1 cells harboring IRF-inducible luciferase reporter construct assessed as increase in relative fluorescence unit incubated for 12 hrs by Quanti-luc reagent based assay; type: cell-based
Target sequence in this assay (Q86WV6 whole entry): as the sequence (Q86WV6 whole entry, looked up, stated change not applied) above

4T1-Luc = test: Antitumor activity against mouse 4T1-Luc cells implanted in naive BALB/c mouse assessed as tumor growth inhibition at 20 mg/kg, po administered once every 5 days and measured after 15 days by digital caliper analysis; type: functional, organism-based; conditions: time 15.0 day
[9] = target: T1, Stimulator of interferon genes protein (Mus musculus); test: Agonist activity at STING in mouse MEF cells assessed as increase in CXCL10 mRNA expression at 10 uM measured after 3 hrs by qRT-PCR analysis; type: cell-based; conditions: filed as agonist
MC-38 = test: In vivo activation of STING in naive […] mouse implanted with mouse MC38 cells assessed as increase in IL-6 level in plasma at 30 mg/kg, po administered as single dose and measured after 4 hrs by ELISA; type: functional, organism-based
[10] = target: T3, Stimulator of interferon genes protein; test: Agonist activity at STING in human THP-1 cells harboring IRF-inducible luciferase reporter construct assessed as increase in TBK1 phosphorylation at 50 uM measured after 1 hrs by Western blot analysis; type: cell-based; conditions: filed as agonist
Target sequence in this assay (Q86WV6 whole entry): as the sequence (Q86WV6 whole entry, looked up, stated change not applied) above

[11] = Stability in dog plasma assessed as interconversion into (S)-4-(5,6-Dimethoxybenzo[b]selenophen-2-yl)-2-ethyl-4-oxobutanoic acid incubated for 24 hrs by normal-phase HPLC analysis; type: ADME, cell-free, Canis lupus familiaris
[12] = Half life in Sprague-Dawley rat at 50 mg/kg, po measured for 1440 mins by LC-MS/MS analysis; type: ADME, organism-based; conditions: in vivo
[13] = AUC (0 to infinity) in Sprague-Dawley rat at 50 mg/kg, po measured for 1440 mins by LC-MS/MS analysis; type: ADME, organism-based; set-up: time 1440 min, dose 50 mg/kg, route po; conditions: in vivo
CT26 [14] = test: In vivo activation of STING in naive BALB/c mouse implanted with mouse CT26 cells assessed as increase in IFN-gamma level in plasma at 20 mg/kg, po administered as single dose and measured after 4 hrs by ELISA; type: functional, organism-based
4T1 [15] = test: Antitumor activity against mouse 4T1 cells implanted in naive BALB/c mouse assessed as increase in Ki67-positive CD8 T cells in tumor at 20 mg/kg, po administered once every 5 days by FACS analysis (reference value: 14%); type: functional; conditions: time 5 day
[16] = system: Stimulator of interferon genes protein (Homo sapiens), Q86WV6 [UNDEFINED MUTATION]; test: Binding affinity to recombinant human STING AQ variant expressed in Escherichia coli BL21 (DE3) assessed as thermal stabilization by measuring change in melting temperature at 0.1 mM incubated for 30 mins by SYPRO orange dye based differential scanning fluorimetry assay
[17] = target: T3, Stimulator of interferon genes protein; test: Agonist activity at STING in human THP-1 cells harboring IRF-inducible luciferase reporter construct assessed as increase in IRF3 phosphorylation measured after 3 hrs by Western blot analysis; type: cell-based; conditions: filed as agonist, dose 10-50 µM, DDE = dose-dependent effect
Target sequence in this assay (Q86WV6 whole entry): as the sequence (Q86WV6 whole entry, looked up, stated change not applied) above

[18] = target: T3, Stimulator of interferon genes protein; test: Binding affinity to recombinant human STING H232 variant expressed in Escherichia coli BL21 (DE3) assessed as dissociation constant by multicycle SPR analysis
Target sequence in this assay (Q86WV6 whole entry, looked up, stated change not applied): as the sequence (Q86WV6 whole entry, looked up, stated change not applied) above

[19] = target: T3, Stimulator of interferon genes protein; test: Agonist activity at STING in human THP-1 cells harboring IRF-inducible luciferase reporter construct assessed as fold change in ISG signalling at 20 uM incubated for 12 hrs by Quanti-luc reagent based assay relative to control; type: cell-based; conditions: filed as agonist
Target sequence in this assay (Q86WV6 whole entry): as the sequence (Q86WV6 whole entry, looked up, stated change not applied) above

[20] = Toxicity in naive BALB/c mouse implanted with mouse 4T1-Luc cells assessed as reduction in body weight at 20 mg/kg, po measured after 15 days; type: organism-based; conditions: in vivo, 360 h, time 15 day
CT26 [21] = test: Immunological memory derived antitumor activity against mouse CT26 cells implanted in naive BALB/c mouse assessed as suppression of tumor growth at 20 mg/kg, po administered once every 5 days for 23 days starting from day 8 followed by reinoculation of cells into mouse on day 61 and measured for 50 days; type: functional; conditions: time 50 day
[22] = Volume of distribution at steady state in Sprague-Dawley rat at 5 mg/kg, iv measured for 1440 mins by LC-MS/MS analysis; type: ADME, organism-based; conditions: in vivo, read-out: Vdss
[23] = Aqueous solubility of compound at 3 mg incubated for 24 hrs under shaking condition by RP-HPLC analysis; type: physicochemical; conditions: water
[24] = Clearance in Sprague-Dawley rat at 5 mg/kg, iv measured for 1440 mins by LC-MS/MS analysis; type: ADME, organism-based; conditions: in vivo
[25] = target: T3, Stimulator of interferon genes protein; test: Agonist activity at STING in human THP-1 cells harboring IRF-inducible luciferase reporter construct assessed as increase in IRF3 phosphorylation at 50 uM measured after 3 hrs by Western blot analysis; type: cell-based; conditions: filed as agonist
Target sequence in this assay (Q86WV6 whole entry): as the sequence (Q86WV6 whole entry, looked up, stated change not applied) above

For `CC[C@H](CC(=O)c1cc2cc(OC)c(OC)cc2[se]1)C(=O)O`, the Activity (4T1 [1]) was “Active”, the solubility thermodynamic at 24 h [2] was 1200 µg/mL (≈ 3250 µM) and the ΔTm [3] was 18.1 °C. For the same compound, the CL/F [4] was 2.67 mL/min/kg, the Activity (Mus musculus) was “Active” and the Activity [5] was “Active”. For the same compound, the Stability [6] was “Stable”, the EC50 [7] was 5.71 µM and the EC50 [8] was 5.19 µM. For the same compound, the Activity (4T1-Luc) was “Active”, the Activity [9] was “Active” and the Activity (MC-38) was “Active”. For the same compound, the Activity [10] was “Active”, the Stability [11] was “Stable” and the half-life [12] was 1.6 h. For the same compound, the AUC(0-inf) [13] was 316 µg·h/mL, the Activity (CT26 [14]) was “Active” and the Activity (4T1 [15]) was 25.2%. The ΔTm [16] was 30.3 °C, the Activity [17] was “Dde” and the Kd [18] was 58 µM. The fold change (FC) [19] was 37, the Activity [20] was “Non-Toxic” and the Activity (CT26 [21]) was 100%. For the same compound, the Vd [22] was 0.26 L/kg, the solubility thermodynamic at 24 h [23] was 30 µg/mL (≈ 81.2 µM) and the clearance [24] was 2.83 mL/min/kg. The Activity [25] was “Active”.
